In patent US20180280397A1, “RATIONAL COMBINATION THERAPY FOR THE TREATMENT OF CANCER” (Memorial Sloan Kettering Cancer Center, priority 2015, published 2018):
Entries after “also recorded” stand apart in the source; their conditions may differ.

Tests used:
[1] = Safety and body weight monitoring in tumor-bearing mice; assay type: in vivo
Procedure: Pre-formulated Abraxane® (5 mg/ml) was used.
Five mice were administered the vehicle control.

cancer cell lines = test: Cell viability by Annexin V staining in type 1 and type 2 cancer cells; assay type: cell-based; conditions: for apoptotic sensitivity, type 1 tumors / apoptotic sensitivity, type 2 tumors: Annexin V staining
Procedure: (FIG. 3c). Cells were treated with 1 μM PU-H71-FITC. At 4 h post treatment, cells were washed twice with FACS buffer. To measure PU-H71-FITC binding in live cells, cells were stained with 7-AAD in FACS buffer at room temperature for 10 min, and analyzed by flow cytometry (BD Biosciences). Cell viability was determined using Annexin v staining. […]

[2] = tested on: primary acute myeloid leukemias; test: Ex vivo treatment of primary acute myeloid leukemia samples; assay type: cell-based
Procedure: Primary acute myeloid leukemia. Cryopreserved primary AML samples were obtained with informed consent and Weill Cornell Medical College institutional review board approval, and from the University of Pennsylvania Stem Cell & Xenograft Core Facility.
Epichaperome abundance determined by the PU-FITC flow cytometry assay. Cells were treated with 1 μM PU-H71-FITC. At 4 h post treatment, cells were washed twice with FACS buffer (PBS-0.5% FBS). To measure PU-H71-FITC binding in live cells, cells were stained with 7-AAD in FACS buffer at room temperature for 10 min, and analyzed by using an BD-LSR-II or BD-Canto cytometry (BD Biosciences). Cell viability was determined using Annexin-V staining. At 48 h post 1 μM PUH71 treatment, cells were stained with Annexin-V BD Horizon-V450 (BD Biosciences) and 7-AAD in Annexin-V buffer, and subjected to flow cytometry to measure viability determined by AnnexinV/7AAD double negative gates.

[3] = tested on: triple-negative breast cancer mouse models; conditions: pre-clinical; cited from earlier work
[4] = tested on: BT20 triple negative breast cancer cells; test: Incucyte kinetic growth assay; assay type: cell-based; conditions: for effect on cell confluency, agent alone: 2 μM paclitaxel or 5 μM PU-H71; for remaining live cells and regrowth after removal of agents: between 130 h and approximately 230 h
Procedure: MDA-MD-231 and BT20 triple negative breast cancer cells were seeded in tissue culture treated dishes. Once confluent to approximately 50% of the vessel surface area, the cells were treated with medium containing 2 μM paclitaxel, 5 μM PU-H71, vehicle (DMSO), or a combination of 2 μM paclitaxel and 5 μM PU-H71 (together or sequential). Cells were grown in these conditions in an Essen IncuCyte housed in a standard cell culture incubator. Nine images per condition were collected every 2 hours for a total of 316 hours. After 24 hours under the aforementioned treatment conditions, paclitaxel treated cells were treated with medium containing 5 μM PU-H71 or the control vehicle, PU-H71 treated cells were treated with medium containing 2 μM paclitaxel or control vehicle, and the cells treated with vehicle and the combination of PU-H71 with paclitaxel were treated with medium containing control vehicle. All secondary drug additions were added to existing medium containing the original treatment. The existing medium was additionally diluted twice more with medium containing the control vehicle; each dilution occurring 24 hours after the previous. After 96 hours in culture, the medium was aspirated from each well and replaced with cell-appropriate medium with no pharmacological agents. As stated above, cells were monitored for a total of 316 hours (i.e., […] after complete removal of pharmacological agents).

primary breast tumors = test: Ex vivo treatment of primary breast cancer specimens; assay type: cell-based; conditions: 24 h
Procedure: Primary breast cancer specimens. Patient tissue procurement was authorized through institutionally review board-approved bio-specimen protocol#09-121 at Memorial Sloan Kettering Cancer Centre (New York, N.Y.). Specimens were treated for 24 h with the indicated concentrations of PU-H71. Following treatment, slices were fixed in 4% formalin solution for 1 h then stored in 70% ethanol. For tissue analysis, slices were embedded in paraffin, sectioned, slide-mounted, and stained with haematoxylin and eosin. Tissue slides were assessed blindly by a breast cancer pathologist who gauged the apoptosis present in the tumor as well as any effect to normal tissue.
Primary breast tumor protocol. The ex vivo protocol employed on this study is depicted schematically in FIG. 4. Sample preparation and treatment are detailed in Ex vivo treatment response of primary tumors and/or associated metastases for preclinical and clinical development of therapeutics. Corben A D, Uddin M M, Crawford B, Farooq M, Modi S, Gerecitano J, Chiosis G, Alpaugh M L. J Vis Exp. 2014 Oct 2; (92):e52157.

[5] = tested on: HSP90 in the epichaperome complex; test: PU-H71-beads depletion of HSP90 species from cell lysates, isoelectric focusing; assay type: binding
Text: The supernatant was applied to native gel separation followed by immunoblotting with HSP90 and other epichaperome complex components (left, example for MDAMB468) or nanopro isoelectric focusing and immunoblotting ([…], shown for all 3 cells). Duplicates of each experimental condition are presented. Data were graphed to indicate the relative binding affinity of PU-H71 to the HSP90 species as expressed in the 3 cell types.

SUDHL4 DLBCL cells = test: Cell cycle analysis and caspase-3 activation by flow cytometry; assay type: cell-based
Procedure: To further establish the potency of a combination of a proteotoxic agent and an Hsp90 inhibitor, in vitro assays were performed on lymphoma cells treated with Doxorubicin (DOX). DOX is a topoisomerase inhibitor that intercalates into DNA to induce DNA damage and oxidative stress. The interaction of DOX and PU-H71 was evaluated using standard criteria for synergy, the median effect/Combination Index (CI) method. A dose-response matrix was used as a means to systematically test multiple ratios of DOX:PU-H71 for interaction in sequential or simultaneous schedules of exposure. […] The effect of each drug and their combination on cell cycle and apoptosis in lymphoma cells with low to medium epichaperome levels, such as the SUDHL4 DLBCL cells was evaluated (FIG. 18c).
SUDHL4 DLBCL cells were exposed to PU-H71 and DOX or combinations in different schedules as indicated. Caspase-3 activation was measured by flow cytometry using PE-conjugated anti-active Caspase-3 antibody (FIG. 18C). Cell cycle analysis was performed in parallel and is shown in the inset at top left of each scatterplot. Frequency of hypodiploid population is indicated.

HER2+ tumors = conditions: patients with progressive disease after trastuzumab therapy; cited from earlier work
[6] = tested on: BJAB Burkitt lymphoma cells; test: MTS viability assay, DOX followed by PU-H71; assay type: cell-based; conditions: Homo sapiens, 24 h
Procedure: BJAB Burkitt lymphoma cells were exposed to serial dilutions of DOX for 24 h prior to addition of 500 nM PU-H71. Viability was measured 24 h later using standard MTS assay. Sextuplicate data points were averaged and normalized against untreated (DOX alone) or PU-H71-treated (DOX followed by PU-H71) controls. Data is presented as mean±SD.

epichaperome = test: Induction of epichaperome, native gel of HSP90 complexes in treated cancer cells; assay type: cell-based; conditions: cells pretreated with paclitaxel for 1 h then drug washed off
Procedure: Cells were cultured using the procedure described in Example 1. The proteotoxic stressor (e.g., paclitaxel or bortezomib) was added for 6 hours and then the cells were lysed. The homogenate was applied for separation on a gel under native conditions.
For the wash off studies (FIG. 8d), cells were cultured and then treated with paclitaxel (referred to as PAC in figure) for 1-2 hours to mimic in vivo conditions. The paclitaxel was then washed off to determine how long the epichaperome is maintained in vitro.

**Q.** For `CC(C)NCCCn1c(Sc2cc3c(cc2I)OCO3)nc2c(N)ncnc21` [PU-H71, 8-(6-Iodo-benzo[1,3]dioxol-5-ylsulfanyl)-9-(3-isopropylamino-propyl)-9H-purin-6-ylamine], which adverse effects ([1]; Example 13: NCI-H1975, HCC1806 or MDA-MB-231 bearing mice, ip once a week, PU-H71 75 mg/kg, Abraxane 30 mg/kg) is on record?
**A.** The adverse effects was “No adverse effects were observed”.

**Q.** And the adverse effects ([1]; Example 14: MiaPaca2 bearing mice, Abraxane 30 mpk iv or ip 1x wk, PU-H71 75 mpk ip 1x or 2x wk, 40-day treatment)?
**A.** The adverse effects was “No adverse effects were observed”.

**Q.** What about the adverse effects ([1]; Example 15: HCC1806 bearing mice, Abraxane 30 mpk iv 1x wk, PU-H71 75 mpk ip 1x or 2x wk, 40-day treatment) of the same molecule?
**A.** The adverse effects was “No adverse effects were observed”.

**Q.** What about the cell death (cancer cell lines; cells enriched in the epichaperome vs cells with lower levels, 1 μM, 48 h) of the same molecule?
**A.** Its cell death is “more likely to die”.

**Q.** What about the sensitivity to killing (cancer cell lines; cells with AHA-1 levels reduced by siRNA, 24 h) of the same molecule?
**A.** The sensitivity to killing was “less amenable to killing”.

**Q.** What about the “sensitivity of non-malignant lymphocytes in the AML samples” value [2] of the same molecule?
**A.** The value was “insensitive”.

**Q.** And the “sensitivity of type 2 tumors” value [2]?
**A.** The value was “mostly unaffected”.

**Q.** And the “killing of leukemias expressing stable multimeric epichaperome forms” value ([2]; n=40)?
**A.** Its value is “most effectively killed”.

**Q.** What about the single-agent anti-tumor effect [3] of the same molecule?
**A.** The single-agent anti-tumor effect was “most potent targeted single-agent anti-tumor effect yet reported”.

**Q.** And the “effect on cell confluency, agent alone” value [4]?
**A.** The value was “cytotoxic effect”.

**Q.** What about the “remaining live cells and regrowth after removal of agents” value [4] of the same molecule?
**A.** Its value is “a few live cells and these cells start to regrow”.

**Q.** And the “apoptosis / killing of tumors expressing stable multimeric epichaperome forms” value (primary breast tumors)?
**A.** The value was “most effectively killed; also recorded: readily underwent apoptosis”.

**Q.** What about the “sensitivity of adjacent benign tissue” value (primary breast tumors) of the same molecule?
**A.** Its value is “insensitive”.

**Q.** And the “sensitivity of tumors not enriched in the epichaperome (type 2)” value (primary breast tumors)?
**A.** The value was “mostly unaffected; also recorded: far less sensitive”.

**Q.** And the “relative binding affinity for HSP90 species” value ([5]; epichaperome / stress HSP90 vs housekeeping, normal cell HSP90)?
**A.** The value was “higher affinity for the stress HSP90 species; also recorded: higher affinity and selectivity”.

**Q.** And the “amount of epichaperome in the lysates” value ([5]; increasing amounts of PU-H71 attached to a solid support)?
**A.** The value was “dose-dependent reduction”.

**Q.** What about the “effect on cell cycle” value (SUDHL4 DLBCL cells; 24 h exposure to 1 μM PU-H71) of the same molecule?
**A.** Its value is “G1/S arrest”.

**Q.** For `CO[C@H]1/C=C\C=C(/C)C(=O)NC2=CC(=O)C(NCCN(C)C)=C(C[C@@H](C)C[C@H](OC)[C@H](O)[C@@H](C)/C=C(\C)[C@@H]1OC(N)=O)C2=O` [17-DMAG], which clinical response (HER2+ tumors) is on record?
**A.** Its clinical response is “elicited responses”.

**Q.** Which results are given for `CC1(C)CC(=O)c2c(C(F)(F)F)nn(-c3ccc(C(N)=O)c(N[C@H]4CC[C@H](O)CC4)c3)c2C1` [SNX2112]?
**A.** apoptotic sensitivity, type 1 tumors (cancer cell lines; 48 h): effectively killed; apoptotic sensitivity, type 2 tumors (cancer cell lines; 48 h): refractory

**Q.** What does the source list for `CCNC(=O)c1noc(-c2cc(C(C)C)c(O)cc2O)c1-c1ccc(CN2CCOCC2)cc1` [NVP-AUY-922]?
**A.** apoptotic sensitivity, type 1 tumors (cancer cell lines; 48 h): effectively killed; apoptotic sensitivity, type 2 tumors (cancer cell lines; 48 h): refractory

**Q.** With `COc1cccc2c1C(=O)c1c(O)c3c(c(O)c1C2=O)C[C@@](O)(C(=O)CO)C[C@@H]3O[C@H]1C[C@H](N)[C@H](O)[C@H](C)O1` [DOX, Doxorubicin] as the molecule, how does the IC50 ([6]; 500 nM PU-H71 added sequentially 24 h after DOX, viability 24 h later) read?
**A.** The IC50 was 75 nM.

**Q.** And the IC50 ([6]; DOX alone, DOX 24 h, viability measured 24 h later)?
**A.** Its IC50 is 400 nM.

**Q.** What about the “effect on cell cycle” value (SUDHL4 DLBCL cells; 24 h exposure to doses of DOX below the IC50) of the same molecule?
**A.** Its value is “loss of S-phase fraction and accumulation in G2/M”.

**Q.** Which results are given for `CC(=O)O[C@H]1C(=O)[C@@]2(C)[C@H]([C@H](OC(=O)c3ccccc3)[C@]3(O)C[C@H](OC(=O)[C@H](O)[C@@H](NC(=O)c4ccccc4)c4ccccc4)C(C)=C1C3(C)C)[C@]1(OC(C)=O)CO[C@@H]1C[C@@H]2O` [paclitaxel, reference compound]?
**A.** time of decrease of epichaperome to endogenous levels (epichaperome): ≤ 24 h; time of peak epichaperome levels (epichaperome): 5 to 7 h; effect on cell confluency, agent alone [4]: cytotoxic effect; remaining live cells and regrowth after removal of agents [4]: a few live cells and these cells start to regrow
